Experimental findings from patent US10544143B2, “4-azaindole compounds” (BRISTOL-MYERS SQUIBB COMPANY, priority 2017, dated 2020) are described below.

Like-named read-outs stand apart in the source and are kept apart here.

The target in one assay is human TLR8 (Homo sapiens (Human), UniProt Q9NR97). The experiment in a line: TLR8 inhibition reporter assay (HEK-Blue SEAP). (A reporter such as luciferase makes a cellular process visible.);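 note: SEAP driven by IFN-β minimal promoter carrying NF-κB and AP-1 sites, compounds dosed 0.05 nM to 50 µM for 22 h, inhibition scaled between agonist-plus-DMSO and reference-inhibitor wells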
Another assay addresses human TLR7 (Homo sapiens (Human), UniProt Q9NYK1). The experiment in a line: TLR7 inhibition reporter assay (HEK-Blue SEAP). Format: cell-based.
For another assay, the target named is human TLR9 (Homo sapiens (Human), UniProt Q9NR96). The experiment in a line: TLR9 inhibition reporter assay (HEK-Blue SEAP).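 Note: SEAP driven by an IFN-β minimal promoter with NF-κB and AP-1 sites, read after 22 h, compounds dosed 0.05 nM–50 µM, inhibition scaled between agonist plus DMSO and reference-inhibitor wells.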
Setting [1] is: read-out: TLR8 IC50, HEK-Blue cells overexpressing human TLR8, SEAP reporter, R848 15.9 μM.
The mark [2] stands for this setting: HEK-Blue cells overexpressing human TLR7, SEAP reporter, gardiquimod 7.5 μM.
[3] abbreviates: read-out: TLR9 IC50, HEK-Blue cells overexpressing human TLR9, SEAP reporter, ODN2006 5 nM.
The mark [4] stands for this setting: read-out: TLR8 IC50, HEK-Blue cells overexpressing human TLR8, R848 15.9 μM stimulation, SEAP reporter.
Setting [5] is: HEK-Blue cells overexpressing human TLR7, gardiquimod 7.5 μM stimulation, SEAP reporter.
[6] abbreviates: read-out: TLR9 IC50, HEK-Blue cells overexpressing human TLR9, ODN2006 5 nM stimulation, SEAP reporter.
Where [7] appears, read: read-out: TLR8 IC50, HEK-Blue human TLR8 cells, R848 15.9 μM.
Where [8] appears, read: HEK-Blue human TLR7 cells, gardiquimod 7.5 μM.
[9] abbreviates: read-out: TLR9 IC50, HEK-Blue human TLR9 cells, ODN2006 5 nM.

human TLR8, sequence (Q9NR97 27-1041): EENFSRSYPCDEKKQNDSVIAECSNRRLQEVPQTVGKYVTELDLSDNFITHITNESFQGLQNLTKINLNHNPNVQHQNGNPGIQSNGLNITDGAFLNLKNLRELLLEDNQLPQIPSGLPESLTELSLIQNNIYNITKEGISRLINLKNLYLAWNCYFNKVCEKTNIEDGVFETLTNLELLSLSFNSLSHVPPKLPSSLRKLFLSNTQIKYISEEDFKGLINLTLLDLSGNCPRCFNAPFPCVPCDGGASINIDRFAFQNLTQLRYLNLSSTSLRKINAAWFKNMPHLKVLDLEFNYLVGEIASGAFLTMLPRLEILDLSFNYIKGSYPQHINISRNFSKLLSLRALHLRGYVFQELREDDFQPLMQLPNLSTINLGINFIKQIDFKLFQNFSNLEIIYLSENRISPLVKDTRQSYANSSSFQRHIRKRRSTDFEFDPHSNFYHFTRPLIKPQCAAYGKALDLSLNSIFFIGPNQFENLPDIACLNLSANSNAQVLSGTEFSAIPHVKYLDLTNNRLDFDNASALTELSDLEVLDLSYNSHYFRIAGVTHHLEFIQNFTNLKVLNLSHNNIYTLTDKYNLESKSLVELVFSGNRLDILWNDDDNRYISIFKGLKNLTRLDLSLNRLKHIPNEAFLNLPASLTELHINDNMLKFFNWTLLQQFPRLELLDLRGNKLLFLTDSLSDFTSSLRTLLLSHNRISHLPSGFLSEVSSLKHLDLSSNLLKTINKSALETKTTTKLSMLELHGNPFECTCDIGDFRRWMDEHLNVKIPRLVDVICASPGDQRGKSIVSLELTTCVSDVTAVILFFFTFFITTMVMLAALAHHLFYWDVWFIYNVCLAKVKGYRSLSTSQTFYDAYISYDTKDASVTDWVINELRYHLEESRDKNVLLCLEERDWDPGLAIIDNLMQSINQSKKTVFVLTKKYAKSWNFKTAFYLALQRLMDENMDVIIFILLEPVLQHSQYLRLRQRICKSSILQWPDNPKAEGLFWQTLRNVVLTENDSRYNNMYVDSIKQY
human TLR7, sequence (Q9NYK1 27-1049): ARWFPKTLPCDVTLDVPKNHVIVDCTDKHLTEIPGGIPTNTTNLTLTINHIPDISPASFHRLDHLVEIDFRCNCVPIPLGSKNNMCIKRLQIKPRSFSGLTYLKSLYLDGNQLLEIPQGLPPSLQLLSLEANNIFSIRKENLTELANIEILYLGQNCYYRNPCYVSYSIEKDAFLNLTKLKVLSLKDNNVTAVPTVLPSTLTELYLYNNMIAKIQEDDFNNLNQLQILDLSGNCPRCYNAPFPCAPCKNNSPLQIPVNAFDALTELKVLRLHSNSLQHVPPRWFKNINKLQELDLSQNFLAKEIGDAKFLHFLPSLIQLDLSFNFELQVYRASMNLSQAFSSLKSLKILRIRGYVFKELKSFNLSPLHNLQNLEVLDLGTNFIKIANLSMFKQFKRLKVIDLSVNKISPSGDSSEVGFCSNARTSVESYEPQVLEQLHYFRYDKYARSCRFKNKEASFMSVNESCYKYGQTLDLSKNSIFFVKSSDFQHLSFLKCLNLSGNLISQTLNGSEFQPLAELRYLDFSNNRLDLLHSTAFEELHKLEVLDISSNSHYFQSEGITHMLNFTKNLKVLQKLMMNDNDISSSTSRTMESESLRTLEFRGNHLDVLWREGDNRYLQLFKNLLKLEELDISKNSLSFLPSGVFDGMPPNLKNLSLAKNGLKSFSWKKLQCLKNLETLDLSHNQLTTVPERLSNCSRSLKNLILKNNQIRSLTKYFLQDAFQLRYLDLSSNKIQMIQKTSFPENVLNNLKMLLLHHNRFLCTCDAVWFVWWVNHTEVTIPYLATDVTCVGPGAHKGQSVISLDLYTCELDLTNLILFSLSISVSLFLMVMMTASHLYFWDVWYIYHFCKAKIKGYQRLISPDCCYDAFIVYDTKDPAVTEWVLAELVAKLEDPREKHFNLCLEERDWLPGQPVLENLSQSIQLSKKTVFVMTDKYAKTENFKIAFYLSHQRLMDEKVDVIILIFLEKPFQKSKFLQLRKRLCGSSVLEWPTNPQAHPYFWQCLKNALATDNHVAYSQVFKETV
human TLR9, sequence (Q9NR96 26-1032): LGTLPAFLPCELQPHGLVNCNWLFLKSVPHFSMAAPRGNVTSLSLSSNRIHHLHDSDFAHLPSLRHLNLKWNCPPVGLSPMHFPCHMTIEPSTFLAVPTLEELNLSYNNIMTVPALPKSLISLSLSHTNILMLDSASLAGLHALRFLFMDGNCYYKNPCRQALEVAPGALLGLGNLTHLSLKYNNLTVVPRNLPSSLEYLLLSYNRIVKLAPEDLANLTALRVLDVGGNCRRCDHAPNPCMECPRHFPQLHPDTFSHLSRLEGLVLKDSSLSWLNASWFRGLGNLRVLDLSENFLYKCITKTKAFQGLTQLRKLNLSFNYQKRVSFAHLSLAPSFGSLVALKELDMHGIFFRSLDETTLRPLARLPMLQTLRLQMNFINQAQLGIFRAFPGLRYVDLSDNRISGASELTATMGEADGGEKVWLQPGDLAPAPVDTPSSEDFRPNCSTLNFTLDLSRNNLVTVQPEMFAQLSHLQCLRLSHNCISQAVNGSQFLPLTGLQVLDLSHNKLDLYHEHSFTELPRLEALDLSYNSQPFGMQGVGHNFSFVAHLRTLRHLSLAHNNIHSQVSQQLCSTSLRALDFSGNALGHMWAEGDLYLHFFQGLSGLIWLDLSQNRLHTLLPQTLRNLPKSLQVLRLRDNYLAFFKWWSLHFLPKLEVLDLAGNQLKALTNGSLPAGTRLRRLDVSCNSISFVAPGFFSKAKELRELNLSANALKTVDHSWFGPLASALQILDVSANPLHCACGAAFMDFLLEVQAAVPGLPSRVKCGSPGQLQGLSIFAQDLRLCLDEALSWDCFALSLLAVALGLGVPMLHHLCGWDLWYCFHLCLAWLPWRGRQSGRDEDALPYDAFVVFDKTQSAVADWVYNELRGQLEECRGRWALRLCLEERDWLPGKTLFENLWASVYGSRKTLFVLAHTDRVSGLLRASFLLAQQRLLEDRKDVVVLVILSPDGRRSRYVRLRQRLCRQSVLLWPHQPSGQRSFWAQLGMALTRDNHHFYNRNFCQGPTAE

The term IC50 denotes the concentration at which inhibition is half-maximal. With `Cc1c(-c2[nH]c3ccc(C4CCC(NCCO)CC4)nc3c2C(C)C)cn2ncnc2c1C` (stereo not drawn) [Example 409], the IC50 at human TLR8 (setting [1]) turned out to be 1.6 nM; on human TLR7 (setting [2]), 1.7 nM; on human TLR9 (setting [3]), 550 nM.
Regarding `CC(C)c1c(-c2cn(C)c3ncncc23)[nH]c2ccc(N3CCNCC3)nc12` [Example 122], the IC50 was 1.1 nM at human TLR8 (setting [4]), 1.7 nM on human TLR7 (setting [5]) and 7250 nM on human TLR9 (setting [6]).
As for `Cc1c(-c2[nH]c3ccc(N4CCN(C(=O)CN5CCC(F)(F)C5)CC4)nc3c2C(C)C)cn2ncnc2c1C` [Example 919], the results for the IC50 at human TLR8 (setting [7]), against human TLR7 (setting [8]) and on human TLR9 (setting [9]) were 1 nM, 23 nM and 13900 nM, respectively.
`Cc1c(-c2[nH]c3ccc(C4CC(N(C)CCS(C)(=O)=O)C4)nc3c2C(C)C)cn2ncnc2c1C` (stereo not drawn) [Example 621]: the IC50 is 7.5 nM at human TLR8 (setting [1]), 7 nM at human TLR7 (setting [2]) and 14700 nM on human TLR9 (setting [3]).
For the compound `Cc1c(-c2[nH]c3ccc(C4CCC(N(CC#N)C5COC5)CC4)nc3c2C(C)C)cn2ncnc2c1C` (stereo not drawn) [Example 441], the IC50 came to 0.63 nM at human TLR8 (setting [1]), 0.79 nM against human TLR7 (setting [2]) and 1660 nM at human TLR9 (setting [3]).
Consider `Cc1c(-c2[nH]c3ccc(CCC4CN(CC5(C)COC5)C4)nc3c2C(C)C)cn2ncnc2c1C` [Example 702], for which the IC50 at human TLR8 (setting [1]) worked out at 14 nM; on human TLR7 (setting [2]), 41 nM; on human TLR9 (setting [3]), 2230 nM.
For `COc1cc(-c2[nH]c3ccc(N4CC5(CN(CC(C)(C)O)C5)C4)nc3c2C(C)C)cn2ncnc12` [Example 1021], the IC50 is 11 nM on human TLR8 (setting [7]), 4.3 nM on human TLR7 (setting [8]) and 5330 nM at human TLR9 (setting [9]).
`COc1cc(-c2[nH]c3ccc(OC4CN(C(C)C)C4)nc3c2C(C)C)cn2ncnc12` [Example 612, 6-(3-isopropyl-5-((1-isopropylazetidin-3-yl)oxy)-1H-pyrrolo[3,2-b]pyridin-2-yl)-8-methoxy-[1,2,4]triazolo[1,5-a]pyridine]: the IC50 on human TLR8 (setting [1]) was 56 nM; against human TLR7 (setting [2]) it was 13 nM; at human TLR9 (setting [3]), 3930 nM.
In the case of `COc1cc(-c2[nH]c3ccc(N4CCN(CC5CCOC5)CC4)nc3c2C(C)C)cn2ncnc12` (stereo not drawn) [Example 107], the IC50 is 0.37 nM on human TLR8 (setting [4]), 2.2 nM on human TLR7 (setting [5]) and 5630 nM at human TLR9 (setting [6]).
For `Cc1c(-c2[nH]c3ccc(N4CCN(C(=O)CN5CCC6(CCOC6)C5)CC4)nc3c2C(C)C)cn2ncnc2c1C` (stereo not drawn) [Example 947], the IC50 at human TLR8 (setting [7]) was 0.66 nM; at human TLR7 (setting [8]) it was 1.9 nM; at human TLR9 (setting [9]), 8770 nM.
For `Cc1cc(-c2[nH]c3ccc(C4CCC(NC5COC5)CC4)nc3c2C(C)C)cc(C)n1` (stereo not drawn) [Example 282], the IC50 at human TLR8 (setting [4]) came out at 0.91 nM; against human TLR7 (setting [5]) it was 0.32 nM; on human TLR9 (setting [6]) it was 661 nM.
As for `CC(C)c1c(-c2cn(C)c3ncccc23)[nH]c2ccc(CCC3CN(CC4(C)COC4)C3)nc12` [Example 691], the IC50 at human TLR8 (setting [1]) was 9.2 nM; at human TLR7 (setting [2]), 11 nM; at human TLR9 (setting [3]) it was 315 nM.
Consider `COc1cc(-c2[nH]c3ccc(C4CC(N)C4)nc3c2C(C)C)cn2ncnc12` (stereo not drawn) [Example 620], for which the IC50 on human TLR8 (setting [1]) is 2.4 nM; on human TLR7 (setting [2]), 0.73 nM; on human TLR9 (setting [3]) it was 223 nM.
As to `COCCNC1CCC(c2ccc3[nH]c(-c4cn5ncnc5c(C)c4C)c(C(C)C)c3n2)CC1` (stereo not drawn) [Example 431], the IC50 on human TLR8 (setting [1]) is 11 nM; at human TLR7 (setting [2]), 16 nM; at human TLR9 (setting [3]), 4660 nM.
Consider `COc1cc(-c2[nH]c3ccc(N4CCN(CCS(C)(=O)=O)CC4)nc3c2C(C)C)cn2ncnc12` [Example 95], for which the half-inhibitory concentration (IC50) at human TLR8 (setting [4]) was 3.6 nM; at human TLR7 (setting [5]) it was 4.9 nM; at human TLR9 (setting [6]), over 50000 nM.
Turning to `Cc1c(-c2[nH]c3ccc(C4CCC(NC(C)(C)C)CC4)nc3c2C(C)C)cn2ncnc2c1C` (stereo not drawn) [Example 1054], the results for the IC50 at human TLR8 (setting [7]), on human TLR7 (setting [8]) and at human TLR9 (setting [9]) were 1.7 nM, 5.4 nM and 1690 nM, respectively.
Take `Cc1c(-c2[nH]c3ccc(C4CCC(N(CCO)CC5(S(C)(=O)=O)CC5)CC4)nc3c2C(C)C)cn2ncnc2c1C` (stereo not drawn) [Example 481]: the IC50 at human TLR8 (setting [1]) was found to be 3.9 nM; on human TLR7 (setting [2]) it was 0.82 nM; on human TLR9 (setting [3]), 13000 nM.
The corresponding values for `Cc1cnc(CN(C)C2CCC(c3ccc4[nH]c(-c5cn6ncnc6c(C)c5C)c(C(C)C)c4n3)CC2)cn1` (stereo not drawn) [Example 414] are 12 nM, 5.1 nM and 1760 nM.
Turning to `COc1cc(-c2[nH]c3ccc(C4CCC(N5CCCC5)CC4)nc3c2C(C)C)cn2ncnc12` (stereo not drawn) [Example 192], the IC50 amounted to 19 nM on human TLR8 (setting [4]), 3.1 nM against human TLR7 (setting [5]) and 1110 nM on human TLR9 (setting [6]).
The corresponding values for `COc1cc(-c2[nH]c3ccc(C4CCC(N(C)C)CC4)nc3c2C(C)C)cn2ncnc12` (stereo not drawn) [Example 187] are 20 nM, 2.1 nM and 4220 nM.
For `Cc1c(-c2[nH]c3ccc(N4CCN[C@@H](C(C)C)C4)nc3c2C(C)C)cn2ncnc2c1C` [Example 983], the results for the IC50 at human TLR8 (setting [7]), on human TLR7 (setting [8]) and on human TLR9 (setting [9]) were 0.12 nM, 0.82 nM and 6520 nM, respectively.
On to `COc1cc(-c2[nH]c3ccc(N4CC(N)C4)nc3c2C(C)C)cn2ncnc12` [Example 16], for which the IC50 was 2.1 nM at human TLR8 (setting [4]), 0.6 nM on human TLR7 (setting [5]) and 635 nM on human TLR9 (setting [6]).
For `COc1cc(-c2[nH]c3ccc(C4CCC(N5CCOCC5)CC4)nc3c2C(C)C)cn2ncnc12` (stereo not drawn) [Example 194], the values for the IC50 on human TLR8 (setting [4]), against human TLR7 (setting [5]) and on human TLR9 (setting [6]) were 47 nM, 8.6 nM and 3590 nM, respectively.
Regarding `COc1cc(-c2[nH]c3ccc(C4CCN(C(=O)CN(C)C)CC4)nc3c2C(C)C)cn2ncnc12` [Example 549], the IC50 is 18 nM at human TLR8 (setting [1]), 1.8 nM on human TLR7 (setting [2]) and 401 nM on human TLR9 (setting [3]).
As to `Cc1c(-c2[nH]c3ccc(C4CCC(N(C)CC(N)=O)CC4)nc3c2C(C)C)cn2ncnc2c1C` (stereo not drawn) [Example 398], the IC50 at human TLR8 (setting [1]) was found to be 17 nM; against human TLR7 (setting [2]), 3.8 nM; on human TLR9 (setting [3]) it was 4120 nM.
Turning to `Cc1c(-c2[nH]c3ccc(N4CCC(N(C)Cc5ccnn5C)CC4)nc3c2C(C)C)cn2ncnc2c1C` [Example 62], the IC50 at human TLR8 (setting [4]) is 1.5 nM; against human TLR7 (setting [5]) it was 3.8 nM; at human TLR9 (setting [6]), 11500 nM.
Consider `Cc1c(-c2[nH]c3ccc(C4CCC(N(C)C5CC5)CC4)nc3c2C(C)C)cn2ncnc2c1C` (stereo not drawn) [Example 387], for which the values for the IC50 on human TLR8 (setting [4]), on human TLR7 (setting [5]) and on human TLR9 (setting [6]) were 19 nM, 7.2 nM and 5510 nM, respectively.
The like results for `COc1cc(-c2[nH]c3cc(C)c(C4CCC(NCC(F)F)CC4)nc3c2C(C)C)cn2ncnc12` (stereo not drawn) [Example 322] were, in that order, 19 nM, 1.7 nM and 7410 nM.
For `COc1cc(-c2[nH]c3ccc(C4CNCCO4)nc3c2C(C)C)cn2ncnc12` (stereo not drawn) [Example 671, 2-(3-isopropyl-2-(8-methoxy-[1,2,4]triazolo[1,5-a]pyridin-6-yl)-1H-pyrrolo[3,2-b]pyridin-5-yl)morpholine], the IC50 on human TLR8 (setting [1]) is 2.1 nM; on human TLR7 (setting [2]), 1.4 nM; on human TLR9 (setting [3]), 4480 nM.
The like results for `Cc1c(-c2[nH]c3ccc(C4CCC(N(C)CC5(S(C)(=O)=O)CC5)CC4)nc3c2C(C)C)cn2ncnc2c1C` (stereo not drawn) [Example 476] were, in that order, 2.6 nM, 0.81 nM and 9750 nM.
As for `COCCN(C)C1CCC(c2ccc3[nH]c(-c4cc(OC)c5ncnn5c4)c(C(C)C)c3n2)CC1` (stereo not drawn) [Example 198], the IC50 on human TLR8 (setting [4]) was determined as 7.8 nM; on human TLR7 (setting [5]), 1 nM; on human TLR9 (setting [6]) it was 1140 nM.
As for `[2H]C1([2H])NC([2H])([2H])C([2H])([2H])N(c2ccc3[nH]c(-c4cn5ncnc5c(C)c4C)c(C(C)C)c3n2)C1([2H])[2H]` [Example 857], the IC50 against human TLR8 (TLR8 IC50, HEK-Blue human TLR8 cells, R848 15.9 μM) came out at 0.4 nM; against human TLR7 (setting [8]), 0.65 nM; on human TLR9 (TLR9 IC50, HEK-Blue human TLR9 cells, ODN2006 5 nM) it was 4400 nM.
For the compound `CNC1CCC(c2ccc3[nH]c(-c4cn(C)c5nccnc45)c(C(C)C)c3n2)CC1` (stereo not drawn) [Example 300], the IC50 at human TLR8 (setting [4]) amounted to 286 nM; at human TLR7 (setting [5]) it was 48 nM; on human TLR9 (setting [6]), 9050 nM.
On to `Cc1c(-c2[nH]c3ccc(C4CCC(NC5(C)COC5)CC4)nc3c2C(C)C)cn2ncnc2c1C` (stereo not drawn) [Example 473], for which the IC50 is 9.6 nM on human TLR8 (setting [1]), 7.1 nM against human TLR7 (setting [2]) and 7370 nM on human TLR9 (setting [3]).
The corresponding values for `COc1cc(-c2[nH]c3ccc(CCN4CCCCC4)nc3c2C(C)C)cn2ncnc12` [Example 682] are 24 nM, 16 nM and 1050 nM.
The like results for `Cc1c(-c2[nH]c3ccc(C4CN(C)CCO4)nc3c2C(C)C)cn2ncnc2c1C` (stereo not drawn) [Example 673] were, in that order, 6.9 nM, 5.2 nM and 14400 nM.
The corresponding values for `COc1cc(-c2[nH]c3ccc(C4CCC(N(CC(=O)N(C)C)CC(=O)N(C)C)C4)nc3c2C(C)C)cn2ncnc12` (stereo not drawn) [Example 722] are 46 nM, 6.5 nM and 18500 nM.
On to `Cc1c(-c2[nH]c3ccc(N4CCN(CC(=O)N(C)C)CC4)nc3c2C(C)C)cn2ncnc2c1C` [Example 144], for which the results for the IC50 on human TLR8 (setting [4]), at human TLR7 (setting [5]) and at human TLR9 (setting [6]) were 1.2 nM, 8.4 nM and over 50000 nM, respectively.
In the case of `Cc1c(-c2[nH]c3ccc(C4CCC(NCC5(C)COC5)CC4)nc3c2C(C)C)cn2ncnc2c1C` (stereo not drawn) [Example 477], the IC50 at human TLR8 (setting [1]) worked out at 6 nM; against human TLR7 (setting [2]), 8.3 nM; on human TLR9 (setting [3]), 6160 nM.
